Assay results as given in US4732910A, “Enzyme Inhibiting substance” (Toyo Jozo Co, Ltd., priority 1985, dated 1988).
“And” between values parts separate entries of the source, which are not always exact repeats. Equal entries are not always repeated. Where two headings read alike, the source gives them in different places.

Key:
Papain = target: T1, Papain (Carica papaya, UniProt P00784); test: Papain inhibitory activity (casein hydrolysis); format: biochemical
T1 construct: purchased Boehringer Mannheim AG
T1 sequence (P00784 134-345): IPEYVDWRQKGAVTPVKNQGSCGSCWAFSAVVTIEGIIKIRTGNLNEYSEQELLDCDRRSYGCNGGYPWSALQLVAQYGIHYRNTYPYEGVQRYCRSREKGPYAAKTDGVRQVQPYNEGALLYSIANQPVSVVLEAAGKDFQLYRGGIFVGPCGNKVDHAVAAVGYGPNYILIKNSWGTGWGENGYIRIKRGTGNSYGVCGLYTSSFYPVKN
Protocol: (§1) The 0.2 ml of a solution of papain (300 μg/ml, Boeringer Mannheim AG), 0.25 ml of 40 mM cysteine solution dissolved in 5 mM EDTA solution adjusted pH to 6.8 with sodium hydroxide and 0.55 ml of the 50 mM phosphate buffer (pH 6.8) with or without inhibitor were mixed and incubated at 40° C. for 10 min., followed by adding 4 ml of 1.5% casein solution dissolved in a 50 mM phosphate buffer (pH 6.8) to carry out a reaction at 40° C. for 15 min. Then, 2 ml of 1.1M trichloroacetic acid is added to terminate the reaction. After being left to stand at room temperature for one hour, the reaction mixture is centrifuged at 3500 rpm for 10 minutes and absorbance (S) of the trichloroacetic acid soluble fraction at 280 mμ is measured. Similarly, absorbance (B) at 280 mμ is measured when no inhibitors are added. The percent inhibition was calculated by the following formula: […]
(§2) The amount of inhibitor for 50% inhibition was expressed as IC50.

[1] = system: production of IgG antibody; test: Activity on the production of IgG antibody in mice (passive hemagglutination test); format: in vivo, BDF1 strain male mice; conditions: for IgG antibody titers, individual mice: 200 mg/Kg ip 2 hours before immunization with egg albumin + Freund complete adjuvant, blood after 2 weeks, passive hemagglutination; for Effect on production of IgG antibody (in words): mice, 200 mg/Kg ip
Protocol: Activity on the production of IgG antibody was examined by the following method.
Estatin A or Estatin B were administered ip to BDF1 strain male mice weighing 18-22 g (one group 5 mice) at a dose of 200 mg/Kg. Control group (10 mice) received only physiological saline.
After 2 hours from the administration each mouse was immunized by intradermal injection with 0.2 mg/0.1 ml of egg albumin together with equal volume of Freund complete adjuvant into the 2 separate sites of the back of the mice. After 2 weeks blood was collected and antibody titers were determined by passive hemagglutination test using glutalaldehyde as coupling reajent. The results are shown below. ______________________________________ Test drugs IgG antibody titers ______________________________________ Estatin A 12800, 6450, 25600 12800, 12800 Estatin B 6400, 25600, 12800 25000, 12800 Control 12800, 25600, 25600, 12800, 6450 12800, 12800, 12800, 12800, 12800 ______________________________________

α-Chymotrypsin = target: T2, α-Chymotrypsin (Bos taurus, UniProt P00766); test: α-Chymotrypsin inhibitory activity (casein hydrolysis); format: biochemical
T2 construct: purchased PL Biochemical Co
Source text: (§3) The enzyme reactions were all measured according to the prescribed methods.
(§4) (α-chymotrypsin and pepsin used are those manufactured by PL Biochemical Co., and trypsin is that manufactured by Wako Junyaku Co.)

Solubility = format: physicochemical
Source text: Insoluble in and pyridine.

[2] = system: production of IgE antibody; test: Activity on the production of IgE antibody in mice (PCA reaction); format: in vivo, BDF1 strain male mice; conditions: for IgE antibody titers (PCA antibody titers), individual mice: 200 mg/Kg ip 2 hours before immunization with egg albumin + aluminum hydroxide, blood after 14 days, reciprocal of maximum dilution with positive blueing in rats; for Effect on production of IgE antibody (in words): mice, 200 mg/Kg ip
Protocol: Activity on the production of IgE antibody was examined by the following method.
Estatin A or Estatin B dissolved in physiological saline were administered ip to BDF1 strain male mice weighing 18-22 g (one group 5 mice) at a dose of 200 mg/Kg. Control group (10 mice) received only physiological saline. After 2 hours from the administration, 4 mg of aluminum hydroxide together with 10 μg of egg albumin was administered ip to immunize them. After 14 days from the immunization, blood was collected and IgE antibody titer was assayed by PCA reaction (See "International Archives of Allergy and Applied Immunology" Vol. 48, Page 16, 1975.).
That is, serum samples were serially diluted and injected intradermally into the back of Wistar strain male rats weighing 200-250 g. After 48 hours, 1 ml of 1% Evans blue in physiological saline containing 2 mg of egg albumin was administered iv and rats were killed 30 min. later, and blueing of saline were observed. […] The results are shown below. ______________________________________ PCA Antibody TITERS Test drugs IgE antibody titers ______________________________________ Estatin A <100 <100 <100 <100 <100 Estatin B <100 <100 <100 <100 100 Control 400 800 800 800 800 800 1600 1600 1600 3200 ______________________________________

Trypsin = Trypsin inhibitory activity (casein hydrolysis); format: biochemical; conditions: enzyme 1000 μg protein; substrate casein
Source text: as §3, §4

Pepsin = target: T3, Pepsin (Sus scrofa, UniProt P00791); test: Pepsin inhibitory activity (casein hydrolysis); format: biochemical
T3 construct: purchased PL Biochemical Co
Source text: as §3, §4

Bromelain = target: T4, Bromelain (Ananas comosus, UniProt P14518); test: Bromelain inhibitory activity (casein hydrolysis); format: biochemical
T4 construct: purchased Boehringer Mannheim AG
T4 sequence (P14518 1-212): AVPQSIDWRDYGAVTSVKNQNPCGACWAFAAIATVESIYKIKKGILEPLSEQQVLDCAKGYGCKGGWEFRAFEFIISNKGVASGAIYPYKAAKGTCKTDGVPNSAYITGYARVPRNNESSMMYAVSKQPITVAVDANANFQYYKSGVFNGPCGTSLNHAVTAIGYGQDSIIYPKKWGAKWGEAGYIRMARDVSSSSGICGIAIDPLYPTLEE
Protocol: as §1, §2
(§5) Inhibitory activities against ficin (protein amount: 60 μg, manufactured by Boehringer Mannheim AG) and bromelain (protein content: 100 μg, manufactured by Boehringer Mannheim AG) are also measured by the similar method.

Ficin = Ficin inhibitory activity (casein hydrolysis); format: biochemical; conditions: enzyme 60 μg protein; substrate casein
Protocol: as §1, §2, §5

Stability = conditions: stable at a pH of
mice = test: Acute toxicity; format: in vivo; conditions: ip, 400 mg/Kg

T3 sequence (P00791 60-385): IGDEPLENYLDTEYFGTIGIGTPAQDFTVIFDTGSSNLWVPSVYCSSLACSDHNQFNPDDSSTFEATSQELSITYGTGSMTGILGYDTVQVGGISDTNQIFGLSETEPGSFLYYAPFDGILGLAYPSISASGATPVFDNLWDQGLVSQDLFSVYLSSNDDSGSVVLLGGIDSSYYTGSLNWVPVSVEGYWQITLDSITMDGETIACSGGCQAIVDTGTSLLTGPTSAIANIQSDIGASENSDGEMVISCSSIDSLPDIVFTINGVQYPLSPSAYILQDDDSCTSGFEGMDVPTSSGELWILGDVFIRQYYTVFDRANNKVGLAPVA

## N=C(N)NCCCCNC(=O)[C@H](Cc1ccccc1)NC(=O)C1OC1C(=O)O (mixture of isomers) [N-[N-(D- and L-3-trans-carboxyoxiran-2-carbonyl-L-phenylalanyl]agmatine]
Papain; enzyme 60 μg protein, substrate casein, read-out: IC50 concentration, Papain (converted)
  IC50: 74.1 nM

## N=C(N)NCCCCNC(=O)[C@H](Cc1ccccc1)NC(=O)[C@H]1O[C@@H]1C(=O)O [Estatin A, N-[N-(L-3-trans-carboxyoxiran-2-carbonyl)-L-phenylalanyl]agmatine]
[1]
  IgG antibody titers, individual mice: 12800 (3×) and 6450 and 25600
  Effect on production of IgG antibody (in words): do not inhibit the production of IgG antibody
α-Chymotrypsin; enzyme 200 μg protein, substrate casein, read-out: IC50 concentration, α-Chymotrypsin
  IC50: > 128000 nM
Solubility
  Solubility in benzene, chloroform, ethyl acetate and petroleum ether: Insoluble
  Solubility in water, acetic acid, dimethyl sulfoxide and pyridine: Soluble
[2]
  IgE antibody titers (PCA antibody titers), individual mice: < 100
  Effect on production of IgE antibody (in words): inhibit the production of IgE antibody
Trypsin
  IC50 concentration, Trypsin: > 50 µg/mL
Papain
  IC50: 66.4 nM
Pepsin; enzyme 100 μg protein, substrate casein, read-out: IC50 concentration, Pepsin
  IC50: > 128000 nM
Bromelain; enzyme 100 μg protein, substrate casein, read-out: IC50 concentration, Bromelain (converted)
  IC50: 370 nM
Ficin
  IC50 concentration, Ficin: 0.039 µg/mL
Stability
  Stability: pH at which stable: 2-9
mice
  Acute toxicity: no toxic effect

## N=C(N)NCCCCNC(=O)[C@H](Cc1ccc(O)cc1)NC(=O)[C@H]1O[C@@H]1C(=O)O [Estatin B, N-[N-(L-3-trans-carboxyoxiran-2-carbonyl)-L-tyrosyl]agmatine]
[1]
  IgG antibody titers, individual mice: 6400 and 25600 and 12800 (2×) and 25000
  Effect on production of IgG antibody (in words): do not inhibit the production of IgG antibody
α-Chymotrypsin
  IC50: > 123000 nM
Solubility
  Solubility in benzene, chloroform, ethyl acetate and petroleum ether: Insoluble
  Solubility in water, acetic acid, dimethyl sulfoxide and pyridine: Soluble
[2]
  IgE antibody titers (PCA antibody titers), individual mice: < 100 (4×) and 100
  Effect on production of IgE antibody (in words): inhibit the production of IgE antibody
Trypsin
  IC50 concentration, Trypsin: > 50 µg/mL
Papain
  IC50: 66.3 nM
Pepsin
  IC50: > 123000 nM
Bromelain
  IC50: 356 nM
Ficin
  IC50 concentration, Ficin: 0.041 µg/mL
mice
  Acute toxicity: no toxic effect
